Legend:
[1] = target: T1, Metabotropic glutamate receptor 5 (Rattus norvegicus, UniProt P31424); experiment: Displacement of [3H]M-MPEP from mGluR5 in Sprague-Dawley rat brain P2 membrane after 45 mins by beta counting; type: tissue-based
[2] = target: Metabotropic glutamate receptor 5 (Rattus norvegicus) (UniProt P31424); experiment: Binding affinity to mGluR5 ligand binding site 1 in Sprague-Dawley rat brain P2 membrane assessed per mg of protein after 45 mins by gamma counting; type: tissue-based; conditions: tested as the 18F-labelled form
[3] = target: Metabotropic glutamate receptor 5 (Rattus norvegicus) (UniProt P31424); experiment: Binding affinity to mGluR5 ligand binding site 2 in Sprague-Dawley rat brain P2 membrane assessed per mg of protein after 45 mins by gamma counting; type: tissue-based; conditions: tested as the 18F-labelled form
[4] = Lipophilicity, log P after 15 mins by shake-flask method; type: physicochemical; conditions: octanol/water
[5] = target: T1, Metabotropic glutamate receptor 5; experiment: Binding affinity to mGluR5 ligand binding site 2 in Sprague-Dawley rat brain P2 membrane after 45 mins by gamma counting; type: tissue-based
[6] = target: T1, Metabotropic glutamate receptor 5; experiment: Binding affinity to mGluR5 ligand binding site 1 in Sprague-Dawley rat brain P2 membrane after 45 mins by gamma counting; type: tissue-based

T1 sequence (P31424 whole entry): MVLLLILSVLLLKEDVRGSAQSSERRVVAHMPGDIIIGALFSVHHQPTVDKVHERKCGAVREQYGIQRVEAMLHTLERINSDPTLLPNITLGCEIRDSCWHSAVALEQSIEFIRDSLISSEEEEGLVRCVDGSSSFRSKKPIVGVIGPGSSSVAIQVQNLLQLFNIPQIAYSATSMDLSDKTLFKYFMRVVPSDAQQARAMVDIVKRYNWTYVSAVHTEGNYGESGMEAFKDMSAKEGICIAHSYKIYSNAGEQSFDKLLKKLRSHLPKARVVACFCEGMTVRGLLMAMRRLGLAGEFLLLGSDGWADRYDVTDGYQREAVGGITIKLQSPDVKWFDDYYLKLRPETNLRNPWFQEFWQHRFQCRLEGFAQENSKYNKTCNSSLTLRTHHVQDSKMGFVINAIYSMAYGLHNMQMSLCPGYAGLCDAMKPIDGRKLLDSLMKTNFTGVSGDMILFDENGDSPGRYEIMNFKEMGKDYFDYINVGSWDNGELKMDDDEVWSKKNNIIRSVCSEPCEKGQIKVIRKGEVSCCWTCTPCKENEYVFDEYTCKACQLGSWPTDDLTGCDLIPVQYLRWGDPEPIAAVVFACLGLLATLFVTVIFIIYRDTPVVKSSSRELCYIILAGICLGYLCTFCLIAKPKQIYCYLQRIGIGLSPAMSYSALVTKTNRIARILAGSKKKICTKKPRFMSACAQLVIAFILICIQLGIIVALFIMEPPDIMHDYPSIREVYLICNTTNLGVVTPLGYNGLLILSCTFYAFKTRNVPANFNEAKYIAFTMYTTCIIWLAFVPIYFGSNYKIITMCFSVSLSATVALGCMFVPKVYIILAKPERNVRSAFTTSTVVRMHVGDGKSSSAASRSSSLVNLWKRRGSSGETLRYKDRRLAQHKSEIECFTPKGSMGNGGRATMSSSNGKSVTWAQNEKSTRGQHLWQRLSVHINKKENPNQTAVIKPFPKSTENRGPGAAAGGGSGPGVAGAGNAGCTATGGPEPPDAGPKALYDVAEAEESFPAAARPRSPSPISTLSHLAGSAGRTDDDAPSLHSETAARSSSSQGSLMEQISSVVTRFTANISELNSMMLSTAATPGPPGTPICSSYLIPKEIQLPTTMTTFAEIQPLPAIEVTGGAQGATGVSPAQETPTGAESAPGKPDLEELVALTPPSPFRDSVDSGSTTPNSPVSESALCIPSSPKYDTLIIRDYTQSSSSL
Chain of Metabotropic glutamate receptor 5 (Rattus norvegicus) (P31424 21-1203 limits assumed): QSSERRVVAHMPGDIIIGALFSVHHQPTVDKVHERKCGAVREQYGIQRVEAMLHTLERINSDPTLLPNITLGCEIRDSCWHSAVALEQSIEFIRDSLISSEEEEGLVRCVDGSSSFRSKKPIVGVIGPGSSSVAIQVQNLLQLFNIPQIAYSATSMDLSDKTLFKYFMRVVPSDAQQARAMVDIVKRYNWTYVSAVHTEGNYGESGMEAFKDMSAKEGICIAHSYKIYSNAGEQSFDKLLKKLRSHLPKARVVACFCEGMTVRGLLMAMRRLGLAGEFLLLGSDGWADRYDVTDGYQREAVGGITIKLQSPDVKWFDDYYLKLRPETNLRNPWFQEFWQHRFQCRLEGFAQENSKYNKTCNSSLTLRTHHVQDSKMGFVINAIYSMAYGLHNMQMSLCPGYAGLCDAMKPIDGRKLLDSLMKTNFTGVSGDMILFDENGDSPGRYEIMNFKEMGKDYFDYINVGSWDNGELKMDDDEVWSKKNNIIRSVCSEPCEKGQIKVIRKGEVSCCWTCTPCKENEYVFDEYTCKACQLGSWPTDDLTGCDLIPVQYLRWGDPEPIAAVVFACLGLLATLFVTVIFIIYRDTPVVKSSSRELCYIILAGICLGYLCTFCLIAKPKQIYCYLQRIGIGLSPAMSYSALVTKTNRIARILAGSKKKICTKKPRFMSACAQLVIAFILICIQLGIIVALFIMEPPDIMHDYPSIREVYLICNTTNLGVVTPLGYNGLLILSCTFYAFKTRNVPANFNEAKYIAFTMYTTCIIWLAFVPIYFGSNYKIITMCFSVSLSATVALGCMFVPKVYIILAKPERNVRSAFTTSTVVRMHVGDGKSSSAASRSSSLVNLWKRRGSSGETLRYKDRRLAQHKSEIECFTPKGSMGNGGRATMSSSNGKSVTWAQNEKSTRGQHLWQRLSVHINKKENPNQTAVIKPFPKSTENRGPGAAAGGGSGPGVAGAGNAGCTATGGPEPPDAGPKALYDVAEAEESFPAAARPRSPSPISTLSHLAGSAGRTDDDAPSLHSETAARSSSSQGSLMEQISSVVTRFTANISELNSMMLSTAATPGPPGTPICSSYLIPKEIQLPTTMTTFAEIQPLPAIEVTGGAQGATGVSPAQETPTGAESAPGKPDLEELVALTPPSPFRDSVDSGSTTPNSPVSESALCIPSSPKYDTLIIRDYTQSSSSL

| SMILES | Ki [1] [nM] | also measured |
| --- | --- | --- |
| Cc1cccc(C#CC2=C/C(=N/Oc3cccc(F)n3)CCC2)n1 | 46.8 | – |
| [18F]CCOCCO/N=C1/C=C(C#Cc2ccccn2)CCC1 | – | Kd [5]: 13.7 nM; Kd [6]: 0.6 nM |
| N#Cc1ccc(F)cc1O/N=C1/C=C(C#Cc2ccccn2)CCC1 | 73.4 | – |
| CO/N=C1/C=C(C#Cc2cccnc2)CCC1 | 252 | – |
| N#Cc1ccc(O/N=C2/C=C(C#Cc3ccccn3)CCC2)cc1F | 56.1 | – |
| CO/N=C1/C=C(C#Cc2ccncc2)CCC1 | 54.8 | – |
| N#Cc1ccc(O/N=C2\C=C(C#Cc3ccccn3)CCC2)cc1F | 49.8 | – |

More lines, main results first:

| Ki [1] [nM] | SMILES | also measured |
| --- | --- | --- |
| 2.2 | CO/N=C1/C=C(C#Cc2ccccn2)CCC1 | – |
| 3.8 | FCCOCCO/N=C1/C=C(C#Cc2ccccn2)CCC1 | Bmax [2]: 470 fmol; Bmax [3]: 4 pmol; logP at 0.25 h [4]: 1.7 |
| 5.42 | FCCCOCO/N=C1/C=C(C#Cc2ccccn2)CCC1 | – |
| 4.01 | Fc1cccnc1O/N=C1/C=C(C#Cc2ccccn2)CCC1 | – |
| 44 | Fc1cccc(O/N=C2\C=C(C#Cc3ccccn3)CCC2)n1 | – |
| 26.8 | Cc1cccc(C#CC2=C/C(=N/OCCOCCF)CCC2)n1 | logP at 0.25 h [4]: 2.1 |
| 8.41 | FCCOCO/N=C1/C=C(C#Cc2ccccn2)CCC1 | – |
| 9.15 | Fc1cccc(O/N=C2/C=C(C#Cc3ccccn3)CCC2)n1 | – |
| 4.4 | CO/N=C1/C=C(C#Cc2cccc(C)n2)CCC1 | logP at 0.25 h [4]: 2.4 |
